Assay results reported in patent US4083951A, “Pharmaceutical composition” (Beecham Group Limited, priority 1976, dated 1978).

How the values were obtained:
[1] = test system: phenylquinone induced writhing; assay: phenylquinone induced writhing in the mouse (analgesic effects); assay type: in vivo; conditions: dose in terms of acetyl salicylate content, mixture at 2:1 ratio of equivalents, read-out: ED50 (analgesic effect)
Description: Sodium acetyl salicylate and mixtures of sodium acetyl salicylate and ferrous sulphate (2:1 ratio of equivalents) were tested against phenylquinone induced writhing in the mouse. Dose responses were plotted in terms of acetyl salicylate content and the following ED50 values obtained: […]

gastric erosions = assay: gastric irritancy in starved rats, 1 hour contact time; assay type: in vivo, rat; conditions: rats fasted 18 hr
Description: When tested in starved rats (18 hr. fasted) with a 1 hour contact time the following results were obtained:
*Mixture made from dry compounds
**Constituents dosed as solutions

| SMILES | ED50 [1] | % incidence gastric erosions (gastric erosions; dose 160 mg/kg) | % incidence gastric erosions (gastric erosions; dose 338 mg/kg) | % incidence gastric erosions (gastric erosions; dose 100 mg/kg) |
| --- | --- | --- | --- | --- |
| CC(=O)Oc1ccccc1C(=O)O [Sodium acetyl salicylate] | 56 mg/kg | 88% | 75% | – |
| CC(=O)Oc1ccccc1C(=O)O [Calcium acetyl salicylate] | – | – | – | 25% |
